Laboratory results taken from patent US11739098B2 (BRISTOL-MYERS SQUIBB COMPANY, priority 2017, dated 2023).

What was measured:
Format in all cases: cell-based
human TLR8 = target: T1, human TLR8 (Homo sapiens, UniProt Q9NR97); test: TLR8 inhibition reporter assay (HEK-Blue cells, SEAP reporter, R848 stimulation); conditions: HEK-Blue cells overexpressing human TLR8, SEAP reporter, R848 15.9 μM
T1 construct: host or cells: HEK-Blue cells (HEK293-derived reporter line)
T1 sequence (Q9NR97 27-1041): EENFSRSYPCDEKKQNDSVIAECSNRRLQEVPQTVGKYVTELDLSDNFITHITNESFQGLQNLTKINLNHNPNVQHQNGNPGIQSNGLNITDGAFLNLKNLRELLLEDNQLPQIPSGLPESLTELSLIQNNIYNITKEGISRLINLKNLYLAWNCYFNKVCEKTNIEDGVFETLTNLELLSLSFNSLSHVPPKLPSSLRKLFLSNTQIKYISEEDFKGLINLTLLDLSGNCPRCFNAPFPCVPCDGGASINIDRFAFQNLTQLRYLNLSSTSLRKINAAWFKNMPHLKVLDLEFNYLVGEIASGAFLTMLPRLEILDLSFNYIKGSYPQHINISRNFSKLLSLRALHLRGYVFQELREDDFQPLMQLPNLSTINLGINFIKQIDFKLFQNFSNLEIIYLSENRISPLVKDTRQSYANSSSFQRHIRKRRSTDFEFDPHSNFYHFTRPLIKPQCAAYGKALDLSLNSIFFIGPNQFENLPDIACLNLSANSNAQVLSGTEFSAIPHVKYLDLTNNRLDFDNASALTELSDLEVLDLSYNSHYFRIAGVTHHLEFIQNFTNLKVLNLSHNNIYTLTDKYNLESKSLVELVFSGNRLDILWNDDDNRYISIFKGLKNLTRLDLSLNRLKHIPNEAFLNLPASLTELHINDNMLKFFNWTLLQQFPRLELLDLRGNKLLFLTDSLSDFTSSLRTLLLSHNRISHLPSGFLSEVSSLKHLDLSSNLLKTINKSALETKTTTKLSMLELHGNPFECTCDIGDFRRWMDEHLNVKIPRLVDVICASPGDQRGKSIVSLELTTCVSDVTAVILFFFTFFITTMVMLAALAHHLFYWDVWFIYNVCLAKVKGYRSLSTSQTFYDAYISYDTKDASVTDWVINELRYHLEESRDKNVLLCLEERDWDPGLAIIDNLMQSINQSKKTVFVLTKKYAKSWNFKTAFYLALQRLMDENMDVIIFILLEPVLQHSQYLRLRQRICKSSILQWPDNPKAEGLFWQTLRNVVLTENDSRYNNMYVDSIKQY
Summary of the method: (§1)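 HEK-Blue cells overexpressing human TLR7, TLR8 or TLR9 (NF-κB/AP-1-driven SEAP) pre-treated 30 min at room temperature with compound (0.05 nM–50 μM), then stimulated with gardiquimod 7.5 μM (TLR7), R848 15.9 μM (TLR8) or ODN2006 5 nM (TLR9). SEAP read colorimetrically after 22 h at 37 °C; % inhibition calculated.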

human TLR7 = target: T2, human TLR7 (Homo sapiens, UniProt Q9NYK1); test: TLR7 inhibition reporter assay (HEK-Blue cells, SEAP reporter, gardiquimod stimulation); conditions: HEK-Blue cells overexpressing human TLR7, SEAP reporter, gardiquimod 7.5 μM
T2 construct: host or cells: HEK-Blue cells (HEK293-derived reporter line)
T2 sequence (Q9NYK1 27-1049): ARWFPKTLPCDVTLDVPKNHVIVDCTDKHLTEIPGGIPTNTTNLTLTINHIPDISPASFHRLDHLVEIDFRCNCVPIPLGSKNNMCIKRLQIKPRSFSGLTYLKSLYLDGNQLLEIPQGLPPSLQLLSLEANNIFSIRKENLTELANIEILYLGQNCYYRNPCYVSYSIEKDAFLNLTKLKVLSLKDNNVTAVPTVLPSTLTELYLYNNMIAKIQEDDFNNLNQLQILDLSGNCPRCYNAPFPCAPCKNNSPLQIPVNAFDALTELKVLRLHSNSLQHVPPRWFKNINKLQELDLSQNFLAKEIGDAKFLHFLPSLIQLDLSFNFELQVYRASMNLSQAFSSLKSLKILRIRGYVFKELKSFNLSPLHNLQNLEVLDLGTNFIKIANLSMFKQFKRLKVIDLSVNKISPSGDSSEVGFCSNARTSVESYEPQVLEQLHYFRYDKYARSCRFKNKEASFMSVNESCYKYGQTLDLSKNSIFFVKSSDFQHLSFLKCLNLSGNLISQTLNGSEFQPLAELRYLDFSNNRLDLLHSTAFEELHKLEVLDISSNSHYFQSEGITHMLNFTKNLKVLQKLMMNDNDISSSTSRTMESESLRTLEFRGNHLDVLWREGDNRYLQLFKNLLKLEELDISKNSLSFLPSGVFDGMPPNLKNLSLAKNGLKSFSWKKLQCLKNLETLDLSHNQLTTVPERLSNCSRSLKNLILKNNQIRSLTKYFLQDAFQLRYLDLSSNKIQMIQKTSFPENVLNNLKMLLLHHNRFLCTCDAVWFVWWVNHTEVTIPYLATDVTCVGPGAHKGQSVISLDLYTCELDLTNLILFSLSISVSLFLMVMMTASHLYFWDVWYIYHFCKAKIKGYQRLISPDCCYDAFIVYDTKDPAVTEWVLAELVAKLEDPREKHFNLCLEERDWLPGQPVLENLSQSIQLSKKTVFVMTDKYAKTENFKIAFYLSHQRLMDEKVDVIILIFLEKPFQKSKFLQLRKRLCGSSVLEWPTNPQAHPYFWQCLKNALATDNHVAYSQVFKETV
Summary of the method: as §1

human TLR9 = target: T3, human TLR9 (Homo sapiens, UniProt Q9NR96); test: TLR9 inhibition reporter assay (HEK-Blue cells, SEAP reporter, ODN2006 stimulation); conditions: HEK-Blue cells overexpressing human TLR9, SEAP reporter, ODN2006 5 nM
T3 construct: host or cells: HEK-Blue cells (HEK293-derived reporter line)
T3 sequence (Q9NR96 26-1032): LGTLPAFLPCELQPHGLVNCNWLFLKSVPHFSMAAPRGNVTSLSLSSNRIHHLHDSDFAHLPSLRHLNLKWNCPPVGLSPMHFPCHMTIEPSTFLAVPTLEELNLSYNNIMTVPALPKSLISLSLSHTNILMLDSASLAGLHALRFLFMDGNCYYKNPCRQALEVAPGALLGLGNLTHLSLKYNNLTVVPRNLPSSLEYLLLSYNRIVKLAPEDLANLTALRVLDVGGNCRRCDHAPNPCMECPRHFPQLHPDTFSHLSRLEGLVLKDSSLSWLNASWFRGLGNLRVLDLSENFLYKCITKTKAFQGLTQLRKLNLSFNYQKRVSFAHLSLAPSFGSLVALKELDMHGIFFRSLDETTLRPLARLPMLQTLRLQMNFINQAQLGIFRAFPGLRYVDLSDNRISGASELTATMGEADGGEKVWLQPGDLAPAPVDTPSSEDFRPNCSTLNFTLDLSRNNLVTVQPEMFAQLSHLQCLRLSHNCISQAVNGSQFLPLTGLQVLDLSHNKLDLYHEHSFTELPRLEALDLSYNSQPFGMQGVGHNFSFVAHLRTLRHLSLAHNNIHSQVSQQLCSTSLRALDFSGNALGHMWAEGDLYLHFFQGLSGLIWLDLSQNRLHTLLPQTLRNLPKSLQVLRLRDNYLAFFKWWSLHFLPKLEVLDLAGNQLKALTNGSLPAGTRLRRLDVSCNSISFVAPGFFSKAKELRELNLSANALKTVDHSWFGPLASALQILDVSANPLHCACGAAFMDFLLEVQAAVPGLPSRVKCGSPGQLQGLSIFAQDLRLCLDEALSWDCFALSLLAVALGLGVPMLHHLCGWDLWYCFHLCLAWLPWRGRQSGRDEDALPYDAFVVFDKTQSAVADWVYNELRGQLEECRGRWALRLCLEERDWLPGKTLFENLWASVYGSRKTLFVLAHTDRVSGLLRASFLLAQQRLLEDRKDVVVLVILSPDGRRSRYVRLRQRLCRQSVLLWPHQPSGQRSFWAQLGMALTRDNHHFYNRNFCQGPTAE
Summary of the method: as §1

SMILES | IC50 (human TLR8) [nM] | IC50 (human TLR7) [nM] | IC50 (human TLR9) [nM]
Cc1cc(-c2[nH]c3ccc(C4CCN(Cc5ccn(C)n5)CC4)cc3c2C(C)C)cn2nncc12 [Example 882, 6-(3-isopropyl-5-(1-((1-methyl-1H-pyrazol-3-yl)methyl)piperidin-4-yl)-1H-indol-2-yl)-4-methyl-[1,2,3]triazolo[1,5-a]pyridine] | 100 to 1000 | 1000 to 50000 | 1000 to 50000
CCc1c(-c2ccnc3[nH]ncc23)[nH]c2ccc(C3CCN(Cc4csc(C(C)C)n4)CC3)cc12 [Example 859, 4-((4-(3-ethyl-2-(1H-pyrazolo[3,4-b]pyridin-4-yl)-1H-indol-5-yl)piperidin-1-yl)methyl)-2-isopropylthiazole] | 100 to 1000 | 100 to 1000 | 1000 to 50000
CC(C)c1c(-c2ccc3nccn3c2)[nH]c2ccc(C3CCN(C(=O)CN(C)C)CC3)cc12 [Example 572, 2-(dimethylamino)-1-(4-(2-(imidazo[1,2-a]pyridin-6-yl)-3-isopropyl-1H-indol-5-yl)piperidin-1-yl)ethan-1-one] | 100 to 1000 | < 100 | 1000 to 50000
CC(C)c1c(-c2c[nH]c3cccnc23)[nH]c2ccc(C3CCNCC3)cc12 [Example 19, 3-(3-isopropyl-5-(piperidin-4-yl)-1H-indol-2-yl)-1H-pyrrolo[3,2-b]pyridine] | 1000 to 50000 | 100 to 1000 | 100 to 1000
CNC(=O)CN1CCC(c2ccc3[nH]c(-c4cc(C)c5nccn5n4)c(C(C)C)c3c2)CC1 [Example 448, 2-(4-(3-isopropyl-2-(8-methylimidazo[1,2-b]pyridazin-6-yl)-1H-indol-5-yl)piperidin-1-yl)-N-methylacetamide] | < 100 | < 100 | 1000 to 50000
CC(C)c1c(-c2ccc3cnnn3c2)[nH]c2ccc(C3CCN(C4COC4)CC3)cc12 [Example 734, 6-(3-isopropyl-5-(1-(oxetan-3-yl)piperidin-4-yl)-1H-indol-2-yl)-[1,2,3]triazolo[1,5-a]pyridine] | 100 to 1000 | 100 to 1000 | 1000 to 50000

Other lines, results leading:

IC50 (human TLR8) [nM] | IC50 (human TLR7) [nM] | IC50 (human TLR9) [nM] | SMILES
< 100 | < 100 | > 50000 | CC(C)c1c(-c2ccnc3[nH]ncc23)[nH]c2ccc(C3CCN(C(=O)CS(C)(=O)=O)CC3)cc12 [Example 614, 1-(4-(3-isopropyl-2-(1H-pyrazolo[3,4-b]pyridin-4-yl)-1H-indol-5-yl)piperidin-1-yl)-2-(methylsulfonyl)ethan-1-one]
< 100 | < 100 | 1000 to 50000 | Cc1cc(-c2[nH]c3ccc(C4CCN(Cc5ccn(C)n5)CC4)cc3c2C(C)C)cn2nnnc12 [Example 884, 6-(3-isopropyl-5-(1-((1-methyl-1H-pyrazol-3-yl)methyl)piperidin-4-yl)-1H-indol-2-yl)-8-methyltetrazolo[1,5-a]pyridine]
< 100 | < 100 | < 100 | CCN1CCC(N2CCC(c3ccc4[nH]c(-c5ccnc6[nH]ccc56)c(C)c4c3)CC2)CC1 [Example 811, 4-(5-(1′-ethyl-[1,4′-bipiperidin]-4-yl)-3-methyl-1H-indol-2-yl)-1H-pyrrolo[2,3-b]pyridine]
< 100 | < 100 | 1000 to 50000 | Cc1cc(-c2[nH]c3ccc(C4CCN(C(=O)CN5CCC(F)CC5)CC4)cc3c2C(C)C)cn2nnnc12 [Example 474, 2-(4-fluoropiperidin-1-yl)-1-(4-(3-isopropyl-2-(8-methyltetrazolo[1,5-a]pyridin-6-yl)-1H-indol-5-yl)piperidin-1-yl) ethan-1-one]
< 100 | < 100 | 100 to 1000 | CNC(=O)CN1CCC(c2ccc3[nH]c(-c4cc(OC)c5nccn5c4)c(C(C)C)c3c2)CC1 [Example 434, 2-(4-(3-isopropyl-2-(8-methoxyimidazo[1,2-a]pyridin-6-yl)-1H-indol-5-yl)piperidin-1-yl)-N-methylacetamide]
< 100 | < 100 | 100 to 1000 | Cc1cc2nccn2cc1-c1[nH]c2ccc(C3CCN(C4CCOCC4)CC3)cc2c1C(C)C [Example 693, 6-(3-isopropyl-5-(1-(tetrahydro-2H-pyran-4-yl)piperidin-4-yl)-1H-indol-2-yl)-7-methylimidazo[1,2-a]pyridine]
< 100 | < 100 | 100 to 1000 | CCc1c(-c2ccnc3[nH]ccc23)[nH]c2ccc(C3CCN(C4CCN(C(C)C)CC4)CC3)cc12 [Example 850, 4-(3-ethyl-5-(1′-isopropyl-[1,4′-bipiperidin]-4-yl)-1H-indol-2-yl)-1H-pyrrolo[2,3-b]pyridine]
< 100 | < 100 | 1000 to 50000 | CC(C)c1c(-c2ccc(C#N)c3ncccc23)[nH]c2ccc(C3CCN(CC(N)=O)CC3)cc12 [Example 369, 2-(4-(2-(8-cyanoquinolin-5-yl)-3-isopropyl-1H-indol-5-yl)piperidin-1-yl)acetamide]
